In publication PMC3060409 (Biochemical and biophysical research communications, 2011):
Ends that are not written are not given here.

How the values were obtained:
[1] = system: SOPT1 ([3H]-deltorphin II uptake in RPE cells); experiment: Inhibition of [3H]-deltorphin II uptake in human RPE cells; type: cell-based; details: [3H]-deltorphin II 20 nM, 30 min
[2] = system: SOPT1 ([3H]-deltorphin II uptake in mouse RPE cells); experiment: Inhibition/stimulation of [3H]-deltorphin II uptake in mouse primary RPE cells; type: cell-based, mouse (C57/Bl6); details: [3H]-deltorphin II 20 nM, 30 min
[3] = system: SOPT2 ([3H]-DADLE uptake in RPE cells); experiment: Inhibition of [3H]-DADLE uptake in human RPE cells; type: cell-based
[4] = system: SOPT2 ([3H]-DADLE uptake in mouse RPE cells); experiment: Inhibition of [3H]-DADLE uptake in mouse primary RPE cells; type: cell-based, mouse (C57/Bl6); details: hepcidin 25 μM, [3H]-DADLE 10 nM, 30 min
ferroportin mRNA [5] = experiment: Ferroportin mRNA levels, semi-quantitative RT-PCR; type: cell-based; details: mouse primary RPE; hepcidin 2 μg/ml, 8 h; HPRT1 internal control
ferroportin mRNA [6] = experiment: Ferroportin mRNA levels, real-time RT-PCR; type: cell-based; details: mouse primary RPE; hepcidin 2 μg/ml, 8 h; P < 0.001 (Fig. 4)
HFE mRNA = HFE mRNA levels, RT-PCR; type: cell-based; details: mouse primary RPE; hepcidin 2 μg/ml, 8 h
transferrin receptor 1 = experiment: Transferrin receptor 1 expression; type: cell-based; details: mouse RPE; hepcidin treatment; data not shown
transferrin = experiment: Transferrin expression; type: cell-based; details: mouse RPE; hepcidin treatment; data not shown
hemojuvelin = experiment: Hemojuvelin expression; type: cell-based; details: mouse RPE; hepcidin treatment; data not shown
ferroportin = details: target cells; ref [14]; cited from earlier work
[7] = system: ARPE-19 cells (SOPT1 and SOPT2); type: cell-based, human; details: naloxone 1 mM, 15 min preincubation, FITC-hepcidin 2.5 μM
SOPT1 and SOPT2 = details: ref [5]; cited from earlier work
SOPT1 = details: ref [2]; cited from earlier work

In the case of “DTHFPICIFCCGCCHRSKCGYCCKT (cysteine pairing not given here) [hepcidin]”, the “dose dependence of deltorphin II uptake inhibition” value ([1]; RPE cells, Fig. 1B) is reported as “dose-dependent”, the IC50 ([1]; read-out: IC50, inhibition of deltorphin II uptake, ARPE-19 cells, 25 mM HEPES/Tris pH 7.5, 140 mM NaCl, means ± S.E., three independent experiments in duplicate) is reported as 420 ± 120 nM and the “inhibition of deltorphin II uptake” value ([2]; hepcidin 25 μM, mouse primary RPE) is reported as “almost completely inhibited”. For the same compound, the “dose dependence of DADLE uptake inhibition” value ([3]; [3H]-DADLE 10 nM, 30 min, Fig. 1C) was “dose-dependent”, the “inhibition of DADLE uptake” value [4] was “almost completely inhibited” and the “ferroportin mRNA levels (RT-PCR)” value (ferroportin mRNA [5]) was “significant reduction in ferroportin mRNA levels”. For the same compound, the “ferroportin mRNA levels (real-time RT-PCR)” value (ferroportin mRNA [6]) was “decrease in ferroportin mRNA levels was confirmed”, the “HFE mRNA levels” value (HFE mRNA) was “no effect on HFE mRNA levels” and the “transferrin receptor 1 expression” value (transferrin receptor 1) was “none of these genes was altered”. For the same compound, the transferrin expression (transferrin) was “none of these genes was altered”, the hemojuvelin expression (hemojuvelin) was “none of these genes was altered” and the “binding to ferroportin with internalization and degradation” value (ferroportin) was “binds to ferroportin on target cells and that this complex gets internalized with subsequent degradation”.
In the case of `C=CCN1CC[C@]23c4c5ccc(O)c4O[C@H]2C(=O)CC[C@@]3(O)[C@H]1C5` [naloxone], the “effect on FITC-hepcidin uptake (flow cytometry)” value [7] is reported as “did not alter the uptake”.
For [tyrosyl-3,5–^3H(N)]DADLE [[^3H]-DADLE], the “non-mediated diffusional component of uptake” value ([3]; [3H]-DADLE uptake in presence of 1 mM unlabeled DADLE, pH 7.5) was < 5 % of measured total uptake.
In the case of “HIV-Tat47–57: exogenous oligopeptide recognized by SOPT1 and SOPT2 (YGRKKRRQRRR; Tat; UniProt P04608 47-57, looked up, fragment)”, the “recognition by SOPT1 and SOPT2” value (SOPT1 and SOPT2) is given as “recognize”.
For Gly-Gly-Ile, the “effect on deltorphin II uptake (stimulation)” value ([2]; mouse RPE cells, Gly-Gly-Ile 1 mM) is given as “stimulated deltorphin II uptake” and the “stimulation of SOPT1” value (SOPT1) is given as “potent stimulator of SOPT1”.
